According to ChEMBL document CHEMBL5696442, “Discovery of type II inhibitors of TGFβ-activated kinase 1 (TAK1) and mitogen-activated protein kinase kinase kinase kinase 2 (MAP4K2)” (J Med Chem, 2015):
The source made the active and inactive calls. The calls are words filed in the database; no cut-off is given here.

Experiments:
[1] = target: Mitogen-activated protein kinase 3 (Homo sapiens) (UniProt P27361); experiment: Inhibition of ERK1 (unknown origin) at 10 uM by Ambit Kinomescan binding assay
[2] = target: STE20-like serine/threonine-protein kinase (Homo sapiens) (UniProt Q9H2G2); experiment: Inhibition of SLK K2 labeling site harbouring IIHRDLKAGNILFTLDGDIK in human Huh-7 cells at 10 uM by KiNativ Profiling analysis relative to control; assay type: cell-based
[3] = target: Ribosomal protein S6 kinase alpha-5 (Homo sapiens) (UniProt O75582); experiment: Inhibition of N-terminal RPS6KA5 kinase domain 1 (unknown origin) at 10 uM by Ambit Kinomescan binding assay relative to control
[4] = target: Focal adhesion kinase 1 (Homo sapiens) (UniProt Q05397); experiment: Inhibition of FAK Lys1 labeling site in human A-375 cells at 5 uM by KiNativ Profiling analysis relative to control; assay type: cell-based
[5] = target: Serine/threonine-protein kinase pim-1 (Homo sapiens) (UniProt P11309); experiment: Inhibition of PIM1 (unknown origin) at 10 uM by Ambit Kinomescan binding assay
[6] = target: Serine/threonine-protein kinase MARK2 (Homo sapiens) (UniProt Q7KZI7); experiment: Inhibition of MARK2 Lys2 labeling site harbouring FIVHRDLKAENLLLDADMNIK in human Huh-7 cell lysate at 1 uM by KiNativ Profiling analysis relative to control; assay type: subcellular
[7] = target: Calcium/calmodulin-dependent protein kinase type II subunit gamma (Homo sapiens) (UniProt Q13555); experiment: Inhibition of CaMK2g Lys1 labeling site harbouring TSTQEYAAKIINTKK in human Huh-7 cell lysate at 1 uM by KiNativ Profiling analysis relative to control; assay type: subcellular
[8] = target: Serine/threonine-protein kinase 16 (Homo sapiens) (UniProt O75716); experiment: Inhibition of MPSK1 Lys2 labeling site in human A-375 cells at 5 uM by KiNativ Profiling analysis relative to control; assay type: cell-based
[9] = target: Receptor tyrosine-protein kinase erbB-3 (Homo sapiens) (UniProt P21860); experiment: Inhibition of ERBB3 (unknown origin) at 1 uM by Ambit Kinomescan binding assay relative to control
[10] = target: Mitogen-activated protein kinase kinase kinase 11 (Homo sapiens) (UniProt Q16584); experiment: Inhibition of MLK3 (unknown origin) at 1 uM by Ambit Kinomescan binding assay relative to control
[11] = target: T1, Mitogen-activated protein kinase kinase kinase 15 (Homo sapiens) (UniProt Q6ZN16); experiment: Inhibition of MAP3K15 (unknown origin) at 1 uM by Ambit Kinomescan binding assay relative to control; values are per cent of control
T1 sequence (whole entry): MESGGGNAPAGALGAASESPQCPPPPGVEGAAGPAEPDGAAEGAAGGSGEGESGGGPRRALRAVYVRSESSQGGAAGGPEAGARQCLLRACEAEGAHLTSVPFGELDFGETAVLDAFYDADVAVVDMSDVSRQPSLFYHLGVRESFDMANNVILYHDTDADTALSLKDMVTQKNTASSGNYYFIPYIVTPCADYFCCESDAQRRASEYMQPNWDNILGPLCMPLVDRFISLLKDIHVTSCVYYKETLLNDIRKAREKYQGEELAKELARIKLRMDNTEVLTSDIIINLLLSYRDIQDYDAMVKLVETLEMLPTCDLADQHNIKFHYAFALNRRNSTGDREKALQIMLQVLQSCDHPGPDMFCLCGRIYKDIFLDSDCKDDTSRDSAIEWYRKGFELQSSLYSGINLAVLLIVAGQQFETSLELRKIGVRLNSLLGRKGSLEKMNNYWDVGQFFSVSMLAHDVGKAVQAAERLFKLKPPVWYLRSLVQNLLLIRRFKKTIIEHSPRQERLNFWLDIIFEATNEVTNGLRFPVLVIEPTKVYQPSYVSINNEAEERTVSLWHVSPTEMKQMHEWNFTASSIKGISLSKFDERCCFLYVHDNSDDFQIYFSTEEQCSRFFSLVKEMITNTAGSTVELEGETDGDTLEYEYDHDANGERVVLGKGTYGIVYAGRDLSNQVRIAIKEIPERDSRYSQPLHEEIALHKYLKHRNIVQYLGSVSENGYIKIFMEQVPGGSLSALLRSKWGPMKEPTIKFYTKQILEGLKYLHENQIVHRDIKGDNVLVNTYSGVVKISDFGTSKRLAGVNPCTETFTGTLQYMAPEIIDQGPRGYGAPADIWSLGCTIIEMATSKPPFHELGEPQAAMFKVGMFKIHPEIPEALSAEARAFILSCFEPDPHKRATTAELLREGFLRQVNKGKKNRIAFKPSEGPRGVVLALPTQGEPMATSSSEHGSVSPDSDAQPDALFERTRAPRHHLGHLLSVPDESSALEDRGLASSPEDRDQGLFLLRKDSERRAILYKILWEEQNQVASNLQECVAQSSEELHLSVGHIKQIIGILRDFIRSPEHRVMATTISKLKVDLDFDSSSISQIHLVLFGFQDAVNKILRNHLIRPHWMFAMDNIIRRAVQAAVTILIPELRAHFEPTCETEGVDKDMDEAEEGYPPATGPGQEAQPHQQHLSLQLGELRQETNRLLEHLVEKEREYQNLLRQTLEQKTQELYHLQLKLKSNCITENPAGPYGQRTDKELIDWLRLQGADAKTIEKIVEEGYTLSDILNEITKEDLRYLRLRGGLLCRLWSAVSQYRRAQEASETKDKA

[12] = target: Calcium/calmodulin-dependent protein kinase type II subunit gamma (Homo sapiens) (UniProt Q13555); experiment: Inhibition of CaMK2g Lys1 labeling site harbouring TSTQEYAAKIINTK in human A-375 cells at 5 uM by KiNativ Profiling analysis relative to control; assay type: cell-based

Chain of Calcium/calmodulin-dependent protein kinase type II subunit gamma (Homo sapiens) (Q13555 whole entry): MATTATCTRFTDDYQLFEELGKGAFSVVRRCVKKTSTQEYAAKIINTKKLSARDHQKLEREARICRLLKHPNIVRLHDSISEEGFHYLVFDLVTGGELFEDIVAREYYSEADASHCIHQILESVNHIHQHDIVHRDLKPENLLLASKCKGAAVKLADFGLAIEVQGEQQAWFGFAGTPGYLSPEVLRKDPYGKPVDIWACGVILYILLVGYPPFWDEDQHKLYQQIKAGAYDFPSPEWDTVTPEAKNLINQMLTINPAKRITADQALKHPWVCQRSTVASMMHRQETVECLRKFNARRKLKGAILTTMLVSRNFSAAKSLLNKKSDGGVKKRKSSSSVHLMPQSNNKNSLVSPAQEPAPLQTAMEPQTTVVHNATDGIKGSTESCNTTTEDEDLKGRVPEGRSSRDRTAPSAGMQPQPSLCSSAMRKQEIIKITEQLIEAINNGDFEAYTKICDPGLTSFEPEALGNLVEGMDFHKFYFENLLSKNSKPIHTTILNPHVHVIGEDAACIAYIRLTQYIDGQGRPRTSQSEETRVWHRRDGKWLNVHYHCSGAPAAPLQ
Chain of Serine/threonine-protein kinase pim-1 (Homo sapiens) (P11309 whole entry, looked up): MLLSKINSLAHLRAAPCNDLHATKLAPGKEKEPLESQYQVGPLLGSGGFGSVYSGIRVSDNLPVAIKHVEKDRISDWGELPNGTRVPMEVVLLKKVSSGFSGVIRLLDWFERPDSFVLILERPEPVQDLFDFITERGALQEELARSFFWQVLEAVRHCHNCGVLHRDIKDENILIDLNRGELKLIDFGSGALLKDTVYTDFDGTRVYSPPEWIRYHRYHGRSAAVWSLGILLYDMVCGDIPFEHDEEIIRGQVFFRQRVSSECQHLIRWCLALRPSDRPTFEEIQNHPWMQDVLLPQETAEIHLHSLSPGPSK
Chain of STE20-like serine/threonine-protein kinase (Homo sapiens) (Q9H2G2 whole entry, looked up, the tested form may be a part): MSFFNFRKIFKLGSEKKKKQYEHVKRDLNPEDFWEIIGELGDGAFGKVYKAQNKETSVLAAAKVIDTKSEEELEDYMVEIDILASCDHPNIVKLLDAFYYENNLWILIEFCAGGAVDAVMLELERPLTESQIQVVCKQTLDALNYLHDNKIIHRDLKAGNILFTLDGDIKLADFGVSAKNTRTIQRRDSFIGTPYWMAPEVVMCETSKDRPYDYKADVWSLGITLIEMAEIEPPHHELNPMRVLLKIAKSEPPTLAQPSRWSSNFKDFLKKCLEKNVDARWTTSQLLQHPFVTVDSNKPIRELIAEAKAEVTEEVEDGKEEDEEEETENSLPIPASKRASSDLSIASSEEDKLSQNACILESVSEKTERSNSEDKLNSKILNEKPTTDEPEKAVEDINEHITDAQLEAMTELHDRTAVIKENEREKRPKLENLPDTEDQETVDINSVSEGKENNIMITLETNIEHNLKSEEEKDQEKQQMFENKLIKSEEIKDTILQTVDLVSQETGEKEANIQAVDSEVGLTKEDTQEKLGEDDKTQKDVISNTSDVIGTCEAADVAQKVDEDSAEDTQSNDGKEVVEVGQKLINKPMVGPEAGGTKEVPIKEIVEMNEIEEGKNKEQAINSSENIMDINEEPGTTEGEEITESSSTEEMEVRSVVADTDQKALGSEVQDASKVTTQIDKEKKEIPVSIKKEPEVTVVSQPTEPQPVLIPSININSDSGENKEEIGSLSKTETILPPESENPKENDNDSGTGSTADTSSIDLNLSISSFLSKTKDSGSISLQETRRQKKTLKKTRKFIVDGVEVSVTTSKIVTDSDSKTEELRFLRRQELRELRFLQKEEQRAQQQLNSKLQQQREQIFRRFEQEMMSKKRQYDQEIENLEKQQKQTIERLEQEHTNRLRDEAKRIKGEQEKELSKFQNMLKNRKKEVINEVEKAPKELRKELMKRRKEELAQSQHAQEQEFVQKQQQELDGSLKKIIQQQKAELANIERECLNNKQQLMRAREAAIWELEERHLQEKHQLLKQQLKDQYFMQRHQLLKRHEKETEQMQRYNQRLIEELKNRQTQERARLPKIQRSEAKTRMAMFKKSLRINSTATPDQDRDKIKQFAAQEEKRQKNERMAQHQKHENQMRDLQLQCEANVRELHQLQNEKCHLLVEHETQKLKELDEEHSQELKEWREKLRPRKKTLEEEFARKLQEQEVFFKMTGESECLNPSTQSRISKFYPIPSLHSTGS
Chain of Serine/threonine-protein kinase 16 (Homo sapiens) (O75716 whole entry): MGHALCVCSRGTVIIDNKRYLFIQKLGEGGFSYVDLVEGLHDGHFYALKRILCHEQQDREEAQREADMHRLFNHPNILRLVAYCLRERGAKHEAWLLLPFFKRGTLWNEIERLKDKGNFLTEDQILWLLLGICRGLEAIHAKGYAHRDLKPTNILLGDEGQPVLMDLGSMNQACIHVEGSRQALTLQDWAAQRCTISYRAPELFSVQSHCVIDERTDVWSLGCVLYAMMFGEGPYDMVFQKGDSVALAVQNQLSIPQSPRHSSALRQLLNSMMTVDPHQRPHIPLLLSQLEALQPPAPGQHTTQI
Chain of Receptor tyrosine-protein kinase erbB-3 (Homo sapiens) (P21860 whole entry): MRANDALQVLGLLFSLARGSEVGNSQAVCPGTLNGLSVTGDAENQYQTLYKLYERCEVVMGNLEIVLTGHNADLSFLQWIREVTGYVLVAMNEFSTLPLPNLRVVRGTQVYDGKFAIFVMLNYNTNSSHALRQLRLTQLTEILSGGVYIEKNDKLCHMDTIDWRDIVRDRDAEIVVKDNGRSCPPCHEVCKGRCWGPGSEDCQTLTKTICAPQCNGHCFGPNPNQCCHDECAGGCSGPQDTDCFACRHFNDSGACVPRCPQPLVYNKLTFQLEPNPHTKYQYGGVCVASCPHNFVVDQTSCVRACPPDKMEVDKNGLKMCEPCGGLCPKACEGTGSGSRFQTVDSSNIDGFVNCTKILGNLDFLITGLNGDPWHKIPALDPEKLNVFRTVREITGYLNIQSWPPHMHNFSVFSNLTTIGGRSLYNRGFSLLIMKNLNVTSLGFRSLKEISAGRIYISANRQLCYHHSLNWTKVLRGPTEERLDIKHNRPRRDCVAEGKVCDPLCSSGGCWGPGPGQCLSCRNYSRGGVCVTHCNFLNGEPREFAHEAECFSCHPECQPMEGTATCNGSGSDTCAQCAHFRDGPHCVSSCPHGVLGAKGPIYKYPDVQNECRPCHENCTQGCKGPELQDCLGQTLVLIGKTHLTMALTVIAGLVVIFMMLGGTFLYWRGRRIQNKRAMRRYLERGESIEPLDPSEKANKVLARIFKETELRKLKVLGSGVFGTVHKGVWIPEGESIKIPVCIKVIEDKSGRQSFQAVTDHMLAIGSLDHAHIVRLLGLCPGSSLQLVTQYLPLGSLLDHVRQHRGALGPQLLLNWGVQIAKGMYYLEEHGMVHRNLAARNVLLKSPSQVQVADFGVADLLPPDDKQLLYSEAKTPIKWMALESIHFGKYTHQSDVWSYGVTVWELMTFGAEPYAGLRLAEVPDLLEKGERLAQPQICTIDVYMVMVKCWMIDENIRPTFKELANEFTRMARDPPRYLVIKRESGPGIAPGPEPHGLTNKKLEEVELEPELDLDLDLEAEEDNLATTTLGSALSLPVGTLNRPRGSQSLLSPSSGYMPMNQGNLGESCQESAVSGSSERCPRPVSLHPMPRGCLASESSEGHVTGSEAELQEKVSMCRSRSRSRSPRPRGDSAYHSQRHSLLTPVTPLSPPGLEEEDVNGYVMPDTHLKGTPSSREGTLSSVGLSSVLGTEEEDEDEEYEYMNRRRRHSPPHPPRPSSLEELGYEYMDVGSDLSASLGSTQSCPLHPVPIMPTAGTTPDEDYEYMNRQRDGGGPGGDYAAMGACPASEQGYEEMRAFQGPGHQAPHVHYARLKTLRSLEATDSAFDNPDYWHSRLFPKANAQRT
Chain of Serine/threonine-protein kinase MARK2 (Homo sapiens) (Q7KZI7 whole entry): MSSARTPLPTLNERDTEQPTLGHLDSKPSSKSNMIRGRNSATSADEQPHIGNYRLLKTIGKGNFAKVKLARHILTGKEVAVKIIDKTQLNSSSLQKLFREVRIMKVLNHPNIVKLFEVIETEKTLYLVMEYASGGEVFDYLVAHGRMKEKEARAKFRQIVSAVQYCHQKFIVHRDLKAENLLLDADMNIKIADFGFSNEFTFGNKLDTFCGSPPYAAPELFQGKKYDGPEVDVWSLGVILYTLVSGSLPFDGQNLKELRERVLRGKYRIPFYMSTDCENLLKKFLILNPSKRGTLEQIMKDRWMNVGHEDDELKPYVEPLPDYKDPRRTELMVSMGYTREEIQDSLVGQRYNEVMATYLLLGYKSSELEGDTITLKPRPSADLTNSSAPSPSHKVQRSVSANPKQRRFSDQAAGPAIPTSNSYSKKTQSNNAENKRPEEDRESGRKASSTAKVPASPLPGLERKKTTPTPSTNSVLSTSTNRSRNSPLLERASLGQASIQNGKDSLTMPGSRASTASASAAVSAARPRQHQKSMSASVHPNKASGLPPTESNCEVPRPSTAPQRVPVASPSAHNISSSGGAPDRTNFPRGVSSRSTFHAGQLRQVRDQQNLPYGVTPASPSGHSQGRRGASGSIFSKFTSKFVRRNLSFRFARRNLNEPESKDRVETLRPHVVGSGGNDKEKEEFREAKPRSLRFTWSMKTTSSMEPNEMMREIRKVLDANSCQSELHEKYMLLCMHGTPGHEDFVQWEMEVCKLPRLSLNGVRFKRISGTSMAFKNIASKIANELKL
Chain of Mitogen-activated protein kinase 3 (Homo sapiens) (P27361 whole entry): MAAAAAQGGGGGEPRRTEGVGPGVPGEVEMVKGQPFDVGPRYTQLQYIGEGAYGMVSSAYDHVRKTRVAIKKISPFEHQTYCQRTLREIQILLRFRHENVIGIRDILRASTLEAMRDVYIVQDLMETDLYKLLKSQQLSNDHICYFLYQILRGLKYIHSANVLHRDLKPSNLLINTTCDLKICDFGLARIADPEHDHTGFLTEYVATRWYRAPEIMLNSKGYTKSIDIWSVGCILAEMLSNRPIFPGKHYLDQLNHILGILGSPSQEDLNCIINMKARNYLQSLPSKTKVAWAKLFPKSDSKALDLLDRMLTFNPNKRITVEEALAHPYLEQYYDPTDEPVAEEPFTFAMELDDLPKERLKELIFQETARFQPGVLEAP

`CCN1CCN(Cc2ccc(NC(=O)c3ccc(C)c(Oc4ccnc5[nH]ccc45)c3)cc2C(F)(F)F)CC1` was tested, and the inhibition [1] was “inactive”, the inhibition [2] was 15.7% and the inhibition [3] was “inactive”. For the same compound, the inhibition [4] was 13.8% and the inhibition [5] was “inactive”.

`CNc1cc(Oc2cc(C(=O)Nc3cc(N4CCN(C)CC4)cc(C(F)(F)F)c3)ccc2C)ncn1` gave an inhibition [6] of 6% and an inhibition [7] of 8.6%.

For `CCN1CCN(Cc2ccc(NC(=O)c3ccc(C)c(/C=C/c4cnc5[nH]ccc5c4OC)c3)cc2C(F)(F)F)CC1`, the inhibition [8] was 41%, the inhibition [9] was 100% and the inhibition [10] was 23%. The residual activity [11] was 100% and the inhibition [12] was 14.6%.
